According to patent US12410157B2, “Compound useful as toll-like receptor 7 activation inhibitor” (TOYAMA PREFECTURAL UNIVERSITY, priority 2020, dated 2025):
Where “and” joins values, the source holds several entries; their conditions need not be identical. Identical values can stand only once. Entries after “also recorded” stand apart in the source; their conditions may differ. Counter-ions that a name gives are not always drawn.

Assays:
TLR7 [1] = molecular target: T1, TLR7 (Mus musculus, UniProt P58681); test: TLR7 inhibition (R848-induced serum IFN-α) by intraperitoneal administration in mice; type: in vivo, mice (C57BL/6N); conditions: Example 13
T1 construct: from tissue; host or cells: whole animal, C57BL/6N mice (serum IFN-α after R848)
T1 sequence (P58681 27-1050): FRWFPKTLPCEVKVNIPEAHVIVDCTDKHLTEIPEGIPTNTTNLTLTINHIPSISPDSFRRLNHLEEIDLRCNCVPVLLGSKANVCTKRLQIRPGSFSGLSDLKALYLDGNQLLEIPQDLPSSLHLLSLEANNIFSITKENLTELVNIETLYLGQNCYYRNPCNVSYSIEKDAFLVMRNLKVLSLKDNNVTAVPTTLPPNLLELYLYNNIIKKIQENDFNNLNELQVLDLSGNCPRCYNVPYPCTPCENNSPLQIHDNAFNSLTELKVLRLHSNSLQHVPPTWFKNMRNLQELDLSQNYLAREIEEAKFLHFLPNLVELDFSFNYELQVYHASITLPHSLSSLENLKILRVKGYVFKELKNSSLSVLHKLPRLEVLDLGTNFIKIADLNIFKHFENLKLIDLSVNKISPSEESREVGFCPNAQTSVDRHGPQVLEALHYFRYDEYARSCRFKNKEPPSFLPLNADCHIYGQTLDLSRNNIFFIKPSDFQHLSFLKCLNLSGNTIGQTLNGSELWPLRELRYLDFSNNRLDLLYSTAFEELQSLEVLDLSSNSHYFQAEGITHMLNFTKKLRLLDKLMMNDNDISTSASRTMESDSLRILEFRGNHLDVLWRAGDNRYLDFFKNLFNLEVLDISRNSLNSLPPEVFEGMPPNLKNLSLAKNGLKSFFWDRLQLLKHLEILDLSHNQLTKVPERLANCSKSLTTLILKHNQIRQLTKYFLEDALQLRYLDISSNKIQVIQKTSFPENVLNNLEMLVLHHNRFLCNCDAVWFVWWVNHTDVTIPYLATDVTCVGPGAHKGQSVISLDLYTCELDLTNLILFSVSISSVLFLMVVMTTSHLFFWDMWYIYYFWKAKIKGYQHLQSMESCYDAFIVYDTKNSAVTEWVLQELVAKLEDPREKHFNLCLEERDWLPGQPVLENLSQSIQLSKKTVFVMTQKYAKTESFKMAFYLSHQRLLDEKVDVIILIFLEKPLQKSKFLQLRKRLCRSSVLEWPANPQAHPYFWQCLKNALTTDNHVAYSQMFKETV
Procedure: Normal mice (C57BL/6N, 11 weeks old, female) were administered B2-24-4-5A·HCOOH (1, 5, 10, 100 and 1000 μg) or hydroxychloroquine sulfate (HCQ, 1000 μg) as a comparison drug intraperitoneally, followed by 5 μg of R848 after 30 minutes. The solvent was saline solution. 1 hour after R848 administration, blood was collected and the concentration of IFN-α in the serum was quantified using ELISA (used kit: Mouse IFN alpha Platinum ELISA (trade name), eBioscience). The plots in FIG. 7 represent the data for each individual, each bold line represents the mean value of each group data, and each error bar represents the standard error of each group data.
The same method as in Example 13 was used to study the TLR7 inhibition effect of intraperitoneal administration of B2-24-4·HCl, B2-24-4-5A or B2-24-4-5A·HCOOH in mice. B2-24-4·HCl, B2-24-4-5A and B2-24-4-5A·HCOOH were administered at a dose of 10 μg. The plots in FIG. 8 represent the data for each individual, each bold line represents the mean of each group data, and each error bar represents the standard error of each group data.

TLR7 [2] = molecular target: T2, TLR7 (Homo sapiens, UniProt Q9NYK1); test: TLR7 inhibitory effect (IL-6) in PBMCs from patients with systemic lupus erythematosus; type: cell-based; conditions: SLE patient PBMCs
T2 construct: PBMCs were isolated from 7 mL of blood collected from patients with systemic lupus erythematosus; endogenous in cells; host or cells: PBMCs from patients with systemic lupus erythematosus
T2 sequence (Q9NYK1 27-1049): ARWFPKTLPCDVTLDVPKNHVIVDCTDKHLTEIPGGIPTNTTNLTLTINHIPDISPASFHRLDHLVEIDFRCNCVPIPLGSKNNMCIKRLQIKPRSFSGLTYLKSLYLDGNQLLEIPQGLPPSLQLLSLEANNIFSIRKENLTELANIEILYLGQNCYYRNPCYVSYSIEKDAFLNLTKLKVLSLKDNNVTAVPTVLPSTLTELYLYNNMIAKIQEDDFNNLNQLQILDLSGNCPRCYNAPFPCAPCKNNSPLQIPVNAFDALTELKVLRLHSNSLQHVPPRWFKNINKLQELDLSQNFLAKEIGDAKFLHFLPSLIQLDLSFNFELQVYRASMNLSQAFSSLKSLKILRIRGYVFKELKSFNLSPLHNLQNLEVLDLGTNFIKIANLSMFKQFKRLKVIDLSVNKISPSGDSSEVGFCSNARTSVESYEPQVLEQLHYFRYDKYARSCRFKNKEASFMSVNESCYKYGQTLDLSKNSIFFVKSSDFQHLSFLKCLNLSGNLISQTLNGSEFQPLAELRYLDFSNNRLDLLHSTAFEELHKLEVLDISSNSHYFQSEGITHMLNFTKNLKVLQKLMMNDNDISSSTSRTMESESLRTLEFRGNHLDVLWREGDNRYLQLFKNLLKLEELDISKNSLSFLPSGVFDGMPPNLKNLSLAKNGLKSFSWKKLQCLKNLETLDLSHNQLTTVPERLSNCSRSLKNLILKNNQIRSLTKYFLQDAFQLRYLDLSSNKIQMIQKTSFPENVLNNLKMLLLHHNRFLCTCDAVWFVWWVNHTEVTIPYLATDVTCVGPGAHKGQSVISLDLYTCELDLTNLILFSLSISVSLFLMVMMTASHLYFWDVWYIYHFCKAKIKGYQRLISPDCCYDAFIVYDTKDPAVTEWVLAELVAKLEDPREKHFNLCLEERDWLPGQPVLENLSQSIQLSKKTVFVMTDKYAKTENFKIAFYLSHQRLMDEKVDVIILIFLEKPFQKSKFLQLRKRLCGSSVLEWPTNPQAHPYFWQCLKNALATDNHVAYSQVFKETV
Procedure: The TLR7 inhibitory effect of B2-24-4-5A·HCOOH on PBMCs derived from patients with systemic lupus erythematosus was studied. PBMCs were isolated from 7 mL of blood collected from patients with systemic lupus erythematosus. Isolated PBMCs were spread into each well of a 96-well plate containing RPMI 1640 medium containing 10% (v/v) fetal calf serum (FCS), penicillin, streptomycin, L-glutamic acid, and 2-mercaptoethanol at 0.5×10^5/100 μL and incubated at 37° C. in the presence of 5% (v/v) CO2. 50 μL of B2-24-4-5A·HCOOH, B2-24-4·HCl or the comparative drug hydroxychloroquine sulfate (HCQ) was added to each well to achieve a final concentration of 0.1 μM, 0.5 μM, 1 μM, 5 μM, 10 μM or 50 μM and incubated for 30 minutes. The TLR7 ligand, Gardiquimod (Invivogen), was added at a final concentration of 3 μg/mL and incubated for 24 hours. After incubation, all culture media were collected and the concentration of IL-6 in the culture medium was quantified using ELISA (used kit: human IL-6 DuoSet ELISA (trade name), manufactured by R&D Systems).

[3] = tested on: systemic lupus erythematosus model mice (NZBWF1); test: Therapeutic effect in mouse model of spontaneous systemic lupus erythematosus; type: in vivo
Procedure: Systemic lupus erythematosus model mice (NZBWF1, 20 weeks old, female, n=55) were divided into saline-administered group (control, n=25), B2-24-4-5A·HCOOH-administered group (n=10), B2-24-4·HCOOH-administered group (n=5) and HCQ-administered group (n=15). The saline-administered group received saline (100 l) orally once a day, every day; the B2-24-4-5A·HCOOH-administered group received 10 mg/kg of B2-24-4-5A·HCOOH (100 l) orally once a day, every day; the B2-24-4·HCOOH-administered group received 10 mg/kg of B2-24-4·HCOOH (100 l) orally once a day, every day; the HCQ-administered group received 10 mg/kg of HCQ (100 l) orally once a day, every day. Fifteen weeks after the start of treatment, urine was collected from surviving mice in the saline-administered group (control, n=17), B2-24-4-5A·HCOOH-administered group (n=10), B2-24-4·HCOOH-administered group (n=5), and HCQ-administered group (n=12), and the mice were euthanized. After euthanasia, blood was drawn from the abdominal aorta of the mice, and the kidneys and spleen were removed.
Mice that died of natural causes during the 15-week period from the start of treatment were counted as deaths, and survival analysis was performed using the Kaplan Meier method. Blood collected from the abdominal aorta of each mouse, excluding the deceased cases, was centrifuged and serum was prepared. Determination of urea nitrogen and creatinine levels in serum was entrusted to Oriental Yeast Co. Albumin levels in urine were determined by ELISA (used kit: Levis Urinary Albumin-Mouse (S-type) (trade name) (Fujifilm Wako Shibayagi Corporation)). The removed kidneys were fixed with 4% (w/v) paraformaldehyde, and immunohistochemical staining was entrusted to Morpho Technology, Inc. In PAS-stained kidney tissue sections, histological findings of 100 glomeruli were evaluated. For increased cells and substrate in the mesangial area, endothelial cell swelling and cellular infiltration of the capillary lumen (intratubular proliferation), and glomeruli with inflammatory crescents (extratubular proliferation), each of the 100 glomeruli was assigned a grade from grade 0 to grade 2 according to severity and scored on a 6-point scale.
FIG. 10F is a photograph showing C3 deposition in the glomeruli of a mouse (#1) in the saline-administered group, a mouse (#10) in the B2-24-4-5A·HCOOH-administered group, a mouse (#4) in the B2-24-4·HCOOH-administered group and a mouse (#14) in the HCQ-administered group. […] In the renal tissue sections of a mouse (#1) in the saline-administered group, findings of active glomerulonephritis such as diffuse mesangial and intratubular proliferation were observed. […] The plots in FIGS. 10B, 10C, and 10D show the data for each individual, each bold line is the mean of the group data, and each error bar standard error. Scale bars in FIGS. 10E and 10F represent 100 μm. […]

[4] = molecular target: B lymphocyte stimulator (BLyS) (Homo sapiens, UniProt Q9Y275); conditions: after 52 weeks of intravenous administration (10 mg/kg); cited from earlier work
Sequence of B lymphocyte stimulator (BLyS) (Q9Y275 134-285 limits assumed): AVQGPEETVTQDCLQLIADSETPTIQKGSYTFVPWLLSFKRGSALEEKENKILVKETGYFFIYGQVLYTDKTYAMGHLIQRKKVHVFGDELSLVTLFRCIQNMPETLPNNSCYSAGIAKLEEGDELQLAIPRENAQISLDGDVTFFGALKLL

C=C(C)[C@@H]1CC[C@]2(COC(=O)C2)C[C@H]1c1ccc(CN2CCNCC2)cc1 [B2-24-4-5A]
Order of strength of the effect on IFN-α production (TLR7 [1]; 10 μg, FIG. 8): stronger with B2-24-4-5A·HCOOH, B2-24-4-5A and B2-24-4·HCl in that order
IFN-α production induced by R848 (TLR7 [1]; dose of 10 μg intraperitoneally): attenuated

CCN(CCO)CCCC(C)Nc1ccnc2cc(Cl)ccc12 (centres unmarked) [HCQ, hydroxychloroquine sulfate]
Order of strength of the effect on IL-6 production (TLR7 [2]; FIG. 4): stronger for B2-24-4·HCl, B2-24-4-5A·HCOOH, and HCQ, in that order
IL-6 production induced by gardiquimod stimulation (TLR7 [2]; 0.1-50 μM, Gardiquimod 3 μg/mL, 24 hours): attenuated
Surviving mice fifteen weeks after the start of treatment ([3]; 10 mg/kg orally once a day, groups started with n=10, n=5, n=15 (HCQ)): 12
Tubulo-interstitial inflammation ([3]; per mouse): Not found; also recorded: Found
score ([3]; per mouse, histological score on a 6-point scale): 1.74 and 0.70 and 0.00 and 1.64 and 0.30 and 2.58 and 0.07 and 0.14 and 3.14 and 0.37 and 2.19 and 0.18
Inside 0 ([3]; per mouse, of 100 glomeruli, endothelial cell swelling and cellular infiltration of capillary lumen, Grade 0): 43 and 87 and 100 (2×) and 38 and 95 and 12 and 99 and 15 and 96 and 22 and 98
Inside 1 ([3]; per mouse, of 100 glomeruli, endothelial cell swelling and cellular infiltration of capillary lumen, Grade 1): 38 and 13 and 0 (2×) and 47 and 5 and 36 and 1 and 64 and 4 and 58 and 2
Inside 2 ([3]; per mouse, of 100 glomeruli, endothelial cell swelling and cellular infiltration of capillary lumen, Grade 2): 19 and 0 (7×) and 15 and 52 and 21 and 20
Outside 0 ([3]; per mouse, of 100 glomeruli, glomerulus with semilunar, Grade 0): 100 (10×) and 53 and 96
Outside 1 ([3]; per mouse, of 100 glomeruli, glomerulus with semilunar, Grade 1): 0 (10×) and 26 and 4
Outside 2 ([3]; per mouse, of 100 glomeruli, glomerulus with semilunar, Grade 2): 0 (11×) and 21
Mes0 ([3]; per mouse, of 100 glomeruli, increase in cells and substrates in the mesangium region, Grade 0: None, 10 mg/kg orally, 15 weeks, 10 mg/kg): 15 and 43 and 100 and 16 and 75 and 8 and 93 and 87 and 7 and 68 and 20 and 84
Mes1 ([3]; per mouse, of 100 glomeruli, mesangium region, Grade 1: Moderate or lower): 72 and 57 and 0 and 81 and 25 and 66 and 7 and 13 and 46 and 31 and 43 and 16
Mes2 ([3]; per mouse, of 100 glomeruli, mesangium region, Grade 2: Moderate or higher): 13 and 0 (6×) and 3 and 26 and 47 and 1 and 37

belimumab
Responder rate [4]: 54%
